Two substances from patent US20060258597A1, “Antitumorigenic drug combination and dosing schedule” (priority 2005, published 2006) can be followed below.

[ ]: non-standard residue; d: D form. d(aIle) = CC[C@H](C)[C@@H](N)C(=O)O; Nva = CCC[C@H](N)C(=O)O; Sar = CNCC(=O)O

The assay relates to HT-1080 cells. The experiment in a line: HT-1080 tumor growth inhibition in SCID mice (subcutaneous flank xenograft). Type of assay: in vivo. Conditions: peptide 120 Mpk BID SC and/or bevacizumab 3.0 Mpk twice per week SC; for % T/C: size of tumor treated/control. As to the method:
Female SCID mice (Charles River Laboratories, Wilmington, Mass., USA) with an average body weight of 18.7 g were inoculated subcutaneously into the right flank with 0.1 mL of about 0.5×10^6 HT-1080 cells (1:1 matrigel) on a Friday. Day 3, post inoculation (Monday), the mice were ear tagged and randomized into groups of ten control and treated groups. The representative prodrug of a peptidomimetic of the second of the three Type-1 repeats of TSP-1, N-Ac-Sar-Gly-Val-D-alloIle-Thr-Nva-Ile-Arg-Pro-NHCH2CH3 (120 mpk), was administered twice per day (BID) during the dosing regimen, and the representative […] bevacizumab (3 mpk) was administrated each Monday and Wednesday during the same dosing regimen. Tumors were measured with calipers every Monday, Wednesday and Friday days beginning at day 3, post inoculation. Tumor volumes were calculated according to the formula V=L×W^2/2, wherein V is volume (mm^3), L is length and W is width. Antitumorigenesis was measured by percent tumor growth inhibition (TGI).
The term “mpk,” as used herein, means milligrams drug per kilogram mammal.
The term “SE,” as used herein, means standard error.
The term “T/C,” as used herein, means size of tumor (treated/control).
The term “SC,” as used herein, means subcutaneously.
The term “p-value,” as used herein, means confidence level of comparison to control.
Controls comprised vehicle only. Vehicles for N-Ac-Sar-Gly-Val-D-alloIle-Thr-Nva-Ile-Arg-Pro-NHCH2CH3 and bevacizumab were D5W (5% glucose in water) and isotonic saline (0.9% NaCl in water), respectively.

Take Ac-[Sar]GV[d(aIle)]T[Nva]IRP-NHEt: the “% TGI (percent tumor growth inhibition)” value by setting is: (Day 7) 30.24%; (Day 10) 41.61%; (Day 12) 44.30%; (Day 14) 48.79%. Moreover, the “% T/C” value reads like this: (Day 7) 69.76%; (Day 10) 58.39%; (Day 12) 55.70%; (Day 14) 51.21%.

For bevacizumab, the “% TGI (percent tumor growth inhibition)” value reads like this: (Day 7) 33.68%; (Day 10) 39.40%; (Day 12) 39.25%; (Day 14) 58.30%. Further, the “% T/C” value (Day 7) stood at 66.32%, the “% T/C” value (Day 10) came out at 60.60%, the “% T/C” value (Day 12) came out at 60.75% and the “% T/C” value (Day 14) is 41.70%.
